Key:
GSTP1 Y108A = target: T1, GSTP1 Y108A (Homo sapiens, UniProt P09211, I105V/Y109A); test: Microscale thermophoresis (MST), Y108A; conditions: n.b. = no clear binding detected
T1 construct: hexahistidine tag followed by a thrombin site (N); made in house; host or cells: Escherichia coli BL21 (DE3)
Description: (§1) Since Tris buffer is incompatible with MST labeling, GSTP1 and its mutants were performed an initial buffer exchange to 20 mM HEPES pH 7.6, 200 mM NaCl before labeling. Then, the proteins were fluorescently labeled using Monolith Protein Labeling Kit RED-NHS 2nd generation dye (NanoTemper Technology, Munich, Germany) according to the protocol. MNPC was prepared with a series of concentrations (varying from 2 mM to 11 nM) at a dilution ratio of 1: 2. Six microliters of the fluorescence-labeled GSTP1 or mutations was mixed with 6 μl of variable concentration of MNPC and incubated for 10 min at room temperature. The mixtures were loaded into standard glass capillaries and analyzed on Monolith NT.115 at 25 °C, with 40% LED power and 100% Laser power in triplicate. Data were analyzed by NTAnalysis software to calculate the Kd values.

[1] = system: normal cells (HC11, ACS-5003, MEFs); test: Cell proliferation and LDH assays in normal cells; assay type: cell-based; conditions: up to 5 μM
Description: (§2) In vitro assessment was implemented for cell proliferation using the 3-(4, 5- dimethylthiazol- 2-yl)-2,5-diphenyltetrazolium bromide (MTT) assay. After different treatments with specific time periods, 10 μL of MTT (5 mg/mL in PBS, Sigma, USA) was added to each well and the plates were incubated for 3 h at 37 °C. The resulting formazan product was dissolved with DMSO. The absorbance at a wavelength of 490 nm was recorded using a microplate reader (BioTek Instruments Inc., USA).
(§3) After collecting the supernatants, the […] were measured using LDH assay kits (Promega Corporation, USA). Protein carbonyl level and GSH/GSSG ratio were measured from cell homogenates using Protein Carbonyl Assay Kit (#ab126287, Abcam, Cambridge MA, USA) and GSH/GSSG-Glo™ (Promega Corporation, USA), respectively.

GSTP1 WT = target: T2, GSTP1 WT (Homo sapiens, UniProt P09211, I105V); test: Microscale thermophoresis (MST), GSTP1 wild type; assay type: binding; conditions: mean ± SEM, three experiments
T2 construct: hexahistidine tag followed by a thrombin site (N); made in house; host or cells: Escherichia coli BL21 (DE3)
T2 sequence (P09211 whole entry I105V): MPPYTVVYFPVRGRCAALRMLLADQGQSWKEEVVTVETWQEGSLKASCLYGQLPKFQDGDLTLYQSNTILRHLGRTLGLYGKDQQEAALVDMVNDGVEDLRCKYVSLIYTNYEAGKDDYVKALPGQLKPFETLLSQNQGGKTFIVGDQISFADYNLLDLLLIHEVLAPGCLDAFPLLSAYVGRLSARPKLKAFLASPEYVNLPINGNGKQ
Description: as §1

GSTP1 F8A [2] = target: T3, GSTP1 F8A (Homo sapiens, UniProt P09211, F9A/I105V); test: Microscale thermophoresis (MST), F8A; conditions: n.b. = no clear binding detected
T3 construct: hexahistidine tag followed by a thrombin site (N); made in house; host or cells: Escherichia coli BL21 (DE3)
T3 sequence (P09211 whole entry F9A/I105V): as the sequence (P09211 whole entry I105V) above, with F9A counted along it
Description: as §1

GSTP1 V104A = target: T4, GSTP1 V104A (Homo sapiens, UniProt P09211, I105A); test: GSTP1 kinetic assay, V104A mutant; assay type: biochemical; conditions: mean ± SEM (n=3)
T4 construct: hexahistidine tag followed by a thrombin site (N); made in house; host or cells: Escherichia coli BL21 (DE3)
T4 sequence (P09211 2-210 I105A): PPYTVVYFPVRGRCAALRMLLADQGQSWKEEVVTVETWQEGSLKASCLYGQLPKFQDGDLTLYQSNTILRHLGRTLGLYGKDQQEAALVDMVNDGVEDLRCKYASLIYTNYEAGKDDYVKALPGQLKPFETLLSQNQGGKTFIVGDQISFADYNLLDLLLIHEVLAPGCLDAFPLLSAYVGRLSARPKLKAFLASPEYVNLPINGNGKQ
Description: (§4) The enzymatic activity of GSTP1 and its mutations was measured through the increased absorbance at 340 nm, which derived from the conjugation of reduced glutathione (GSH) and 1-chloro-2,4-dinitrobenzene (CDNB). The conjugation was initiated by adding CDNB to the mixture of GSH and GSTP1 or its mutants, and OD was immediately and continually measured for 20 min at 25 °C. The final assay mixture included 1 mM CDNB, 1 mM GSH in the buffer of 100 mM potassium phosphate pH 6.5, 1 mM EDTA. The inhibitory potency of MNPC versus GSTP1 or mutants was determined by calculating the residual activity after incubated with MNPC for 30 min at room temperature. Parallel control was run to monitor spontaneous conjugation of GSH and CDNB in the absence of the enzyme, and absorbance change of the control was used for the correction of an enzymatic reaction. The inhibition rate in triplicate was calculated by GraphPad Prism software (GraphPad, San Diego, CA) to give IC50 using nonlinear regression analysis.

[3] = system: HK296 – EGFRvIII primary GBM cells; test: Limiting dilution sphere formation, HK296; assay type: cell-based; conditions: MNPC 5 μM, control 1/21.1
Description: (§5) For sphere formation experiments, cell numbers were calculated and cells were plated into 96-well plates at a density of 100, 50, 25, and 12 cells per well (24 wells for each density). Cells were kept in the incubator for 2 weeks before sphere formation was assessed and images were taken. Spheres larger than 10 cells in diameter were considered for analysis. The number of wells forming spheres was used as input to the Walter and Eliza Hall Institute Bioinformatics Division ELDA analyzer (https://bioinf.wehi.edu.au/software/elda/) in order to obtain stem cell frequencies.

GSTP1 F8A [4] = target: T3, GSTP1 F8A; test: GSTP1 kinetic assay, F8A mutant; assay type: biochemical; conditions: mean ± SEM (n=3)
Description: as §4

U87MG/EGFRvIII cells [5] = test: LDH, protein carbonyl and GSH/GSSG measurements; assay type: cell-based, human; conditions: dose-dependent, 0-5 μM
Description: as §3

GSTP1 R100A = target: T5, GSTP1 R100A (Homo sapiens, UniProt P09211, I105V/R101A); test: GSTP1 kinetic assay, R100A mutant; assay type: biochemical; conditions: mean ± SEM (n=3)
T5 construct: hexahistidine tag followed by a thrombin site (N); made in house; host or cells: Escherichia coli BL21 (DE3)
T5 sequence (P09211 whole entry R101A/I105V): as the sequence (P09211 whole entry I105V) above, with R101A counted along it
Description: as §4

[6] = system: EGFR wild-type primary GBM cultures (HK408, HK157 – no EGFRvIII); test: Limiting dilution sphere formation, EGFR wild-type cultures; assay type: cell-based
Description: as §5

U87MG/EGFRvIII cells [7] = test: Cell proliferation (MTT) assay, U87MG/EGFRvIII; assay type: cell-based, human
Description: The human glioblastoma cell line U87MG was stably transfected with vector control, pLHCX-EGFRvIII, pGFP-NQO1 and pRS-GSTP1, which were supplemented with various antibiotics. For EGFRvIII, 150 μg/mL of hygromycin was used; for pGFP-NQO1 and pRS-GSTP1, 0.7 μg/mL of puromycin was employed. The cells were supplemented with 10% fetal bovine serum (Hyclone, USA), penicillin (100 U/ml) and streptomycin (100 U/ml) (ABAM Life Technologies, USA) in a humidified incubator with 5% CO2 at 37 °C.
as §2

U87MG/EGFRvIII cells [8] = test: ROS measurement (DCFH-DA); assay type: cell-based, human; conditions: dose-dependent, 0-5 μM
Description: The DCFH-DA method was employed to detect the levels of intracellular reactive oxygen species (ROS). After various treatments, the cells were collected and then incubated with 5 μM DCFH-DA (ROS dye, #C6827, Invitrogen, USA) for 1 h at 37 °C. The fluorescence intensity was measured by the microplate reader (BioTek Instruments Inc., USA) with settings at excitation and emission equal to 485/535 nm.

T1 sequence (P09211 whole entry I105V/Y109A): as the sequence (P09211 whole entry I105V) above, with Y109A counted along it

What does the source list for Cc1onc(-c2ccccc2)c1C(=O)Nc1ncc([N+](=O)[O-])s1 [MNPC, 5-methyl-N-(5-nitro-thiazol-2-yl)-3-phenylisoxazole-4-carboxamide]?
Kd (μM), Y108A (GSTP1 Y108A): n.b. and no detectable binding; Effect on cell proliferation of normal cells [1]: barely affected; Kd (GSTP1 WT): 17.6 ± 0.8 µM; Kd (μM), F8A (GSTP1 F8A [2]): n.b. and no detectable binding; IC50 (GSTP1 V104A): 0.65 ± 0.19 µM; Stem cell frequency [3]: 1/64; IC50 (GSTP1 F8A [4]): 2.42 ± 0.36 µM; Carbonyl expression (U87MG/EGFRvIII cells [5]): induced; GSH/GSSG ratio (U87MG/EGFRvIII cells [5]): downregulating; LDH release (U87MG/EGFRvIII cells [5]): induced; IC50 (GSTP1 R100A): 2.37 ± 0.38 µM; Effect on sphere formation [6]: little or no effect; Growth of cultures (U87MG/EGFRvIII cells [7]; 0, 0.5, 1, 2 and 5 μM for 5 days, MTT): dose-dependently inhibited the growth; IC50 (U87MG/EGFRvIII cells [7]; Homo sapiens, U-87 MG, inhibition of cell proliferation/viability, MNPC treated 72 h): 1.32 µM; Cell number in NQO1/GSTP1-depleted cells (U87MG/EGFRvIII cells [7]; U87MG/EGFRvIII with si-NQO1, si-GSTP1 or both, MNPC 1 μM, 5 days): no effect on cell number; ROS levels (U87MG/EGFRvIII cells [8]): elevated
